Source: patent US5155130A, “Certain benzopyran and benzothiopyran derivatives” (Ciba-Geigy Corporation, priority 1990, dated 1992)

Tests used:
[1] = test system: rat pleurisy model of inflammation; experiment: Carrageenin-induced pleurisy model of inflammation; assay type: in vivo; settings: 10 mg/kg p.o. at -1, 6, 24 and 45 hours relative to carrageenin injection, 48 hours after injection
Description: 214, 74 (1980), in particular during the late phase of the corrageenin-induced pleurisy.

5-lipoxygenase [2] = experiment: Ex vivo A-23187-stimulated LTB4 formation in whole blood after oral administration; settings: dog, about 0.3 mg/kg p.o.
Experimental: Furthermore, the inhibition of 5-lipoxygenase is determined after oral or i.v. administration to rats or dogs by measuring ex vivo in whole blood the decrease of A-23187-stimulated LTB4 formation as compared to non-treated control animals.

[3] = test system: rat chronic colitis model; experiment: Trinitrobenzenesulfonic acid-induced chronic colitis model; assay type: in vivo; settings: 100 mg/kg p.o. for 4 days
Description: The trinitrobenzenesulfonic acid-induced chronic colitis test in the rat, e.g. as described by Wallace et al, Gastroenterology 1989, 96, 29-36, can be used to evaluate compounds for effects indicative of utility in inflammatory bowel diseases.

5-lipoxygenase [4] = molecular target: T1, 5-lipoxygenase (Cavia porcellus, UniProt A0A286X958); experiment: Inhibition of 5-HETE and LTB4 synthesis in A-23187-stimulated guinea pig polymorphonuclear leukocytes; assay type: cell-based; settings: read-out: IC50 for inhibition of the formation of 5-HETE and leukotriene B4 (LTB4)
T1 construct: A-23187-stimulated guinea pig polymorphonuclear leukocytes; endogenous in cells; host or cells: guinea pig polymorphonuclear leukocytes
T1 sequence (A0A286X958 1-674): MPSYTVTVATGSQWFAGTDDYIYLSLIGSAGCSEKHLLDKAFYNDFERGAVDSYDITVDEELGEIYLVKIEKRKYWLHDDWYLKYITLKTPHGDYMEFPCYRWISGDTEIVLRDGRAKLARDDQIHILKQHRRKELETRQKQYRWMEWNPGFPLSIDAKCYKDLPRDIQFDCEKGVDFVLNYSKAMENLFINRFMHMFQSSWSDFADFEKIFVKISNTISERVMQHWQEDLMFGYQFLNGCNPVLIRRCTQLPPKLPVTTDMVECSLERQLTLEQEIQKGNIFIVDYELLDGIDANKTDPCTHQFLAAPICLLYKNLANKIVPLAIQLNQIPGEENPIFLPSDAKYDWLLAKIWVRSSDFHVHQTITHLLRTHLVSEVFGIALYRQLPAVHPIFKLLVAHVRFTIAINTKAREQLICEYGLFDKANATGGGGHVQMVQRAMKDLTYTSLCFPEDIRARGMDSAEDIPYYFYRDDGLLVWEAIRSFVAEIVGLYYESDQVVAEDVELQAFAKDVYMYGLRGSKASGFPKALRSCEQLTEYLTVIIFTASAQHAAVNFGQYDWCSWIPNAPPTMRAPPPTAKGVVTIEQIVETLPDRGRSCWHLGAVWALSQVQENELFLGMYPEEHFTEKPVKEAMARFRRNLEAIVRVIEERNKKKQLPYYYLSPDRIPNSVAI
Experimental: 5-Lipoxygenase inhibition is determined e.g. by measuring the percent inhibition of the synthesis of 5-HETE [(5S)-5-hydroxy-6,8,11,14-eicosa-tetraenoic acid] and leukotriene B4 (LTB4, 5,12-dihydroxy-6,8,10,14-eicosatetraenoic acid) in A-23187-stimulated guinea pig polymorphonuclear leukocytes, essentially according to radiometric thin-layer chromatographic assays described by Walker and Dawson (J. Pharm. Pharmacol. 31: 778, 1979) and Jakschik and Lee (Nature 287: 51, 1980) to measure the formation of 5-HETE and LTB4 -like products from ^14 C-arachidonic acid. IC50 values are determined graphically as the concentration of test compound at which the synthesis of 5-HETE and LTB4 -like products is reduced to 50% of their respective control values.

IC50 (5-lipoxygenase [4]) [nM] | SMILES | cell count of leukocytes [1] | inhibition of exudate volume [1] | inhibition of LTB4 formation as determined ex vivo (5-lipoxygenase [2]) | inhibition of colitis [3]
– | CNC(=O)N(O)CC1=Cc2cc(Oc3ccc(F)cc3)ccc2OC1 [5(f), 3-[{N-(N'-methylaminocarbonyl)-N-hydroxy}aminomethyl]-6-(p-fluorophenoxy)-2H-1-benzopyran] | lower | inhibition | significant inhibition | –
~50 | NC(=O)N(O)CC1=Cc2cc(Oc3ccccc3)ccc2OC1 [2(d), 3-[(N-Aminocarbonyl-N-hydroxy)aminomethyl]-6-phenoxy-2H-1-benzopyran] | lower | inhibition | significant inhibition | inhibits colitis
